Source: patent publication US20210038730A1, “PEPTIDE NANOFIBERS” (UNIVERSITY OF PORTSMOUTH HIGHER EDUCATION CORPORATION, priority 2018, published 2021)

Tests used:
[1] = In vivo pharmacokinetic study, intravenous; details: mice
Method: (§2) At 5 and 60 minutes, mice were killed and the blood and brain were harvested. Blood samples (0.5-0.7 mL per mouse) were collected into evacuated, sterile, spray coated with tripotassium ethylenediamine tetraacetic acid (3.6 mg), medical grade PET tubes. […] Brain was weighted and homogenised with ice-cold PBS (1×, 7.4) using a 3 mL glass homogeniser. Plasma (100 μL) and brain homogenate (˜800 μL) were extracted with equal volumes of ice-cold acetonitrile three times and samples were dried using a centrifugal concentrator (SPD1010 SpeedVac System, ThermoSavant, Renfrewshire, United Kingdom) under vacuum over 2 hours and 4 hours respectively. Samples were orbitally agitated using a SciQuip Microplate Shaker attached to a tube adapter for 1.5-2 mL tubes (10 mm) for 10 minutes prior being centrifuged at 8,000 rpm for 5 minutes. Supernatants were pipetted in 0.2 mL amber vials and was quantified by reverse phase-HPLC. Analysis was conducted on Onyx Monolithic C18 column (4.6 mm×10+100 mm, 5 μm pore size) with a gradient method (Table 13) using an Agilent 1200 Series HPLC system (Agilent Technologies, Cheadle, UK). […] Injection volume was 40 μL, and the detection was performed at 220 nm and 280 nm.

[2] = tested on: rat red blood cells (RBCs); assay type: cell-based; details: 1 hour, 37° C., read-out: IC50 of haemolysis
Method: Fresh blood, obtained from adult male Wistar rats (250 to 300 g) (Bioresources Unit, School of Pharmacy and Biomedical Sciences, University of Portsmouth, Portsmouth, UK) was collected in sterile lithium heparin-coated tubes (170 I.U., Vacutainer, BD Bioscience, UK) and kept on ice. To isolate the rat red blood cells (RBCs), fresh blood was centrifuged at 2,000 g using Haraeus Multifuge […] (Thermo Scientific, UK) at 4° C. for 10 minutes. The supernatant was removed, and the final volume was raised to the whole blood volume with PBS (0.01 M, pH 7.4). RBCs were centrifuged at 2,000 g for 10 minutes and washed with PBS three times. After the washing steps, two cell suspensions were prepared: 4% (w/v) RBCs in PBS and 1% (v/v) Triton X-100 (i.e. 1 g of cells in 25 mL of PBS or 1% (v/v) Triton X-100). RBCs in PBS and in Triton X-100 were used as a negative and positive control, respectively. […] After incubation, the cells were centrifuged at 1,200 g using a Haraeus Multifuge […] (Thermo Scientific, UK) during 10 minutes. The supernatant (100 μL) was transferred to a 96-well plate, and absorbance was measured at 590 nm. Percentage of haemolysis was calculated using Equation 1: [formula] Abs Negative Control represents the absorbance of the RBCs in PBS and Abs Positive Control the absorbance of the RBCs in 1% (v/v) Triton X-100. A control for Cremophor EL and ethanol mixture was also included.

[3] = tested on: U-87 MG cells; experiment: Cell proliferation (BrdU ELISA); assay type: cell-based, human; details: >7 μM, every two days, 6 days of treatment
Method: (§1) In vitro antitumour effects of TPGnRH and PAX-loaded TPGnRH were assessed in U-87 MG cells, UP-007, UP-029, SEBTA-023 MDA-MD-231 [triple negative (ER^−, PR—, HER2^−) breast cancer cell line] and SK-OV-3 (human ovarian carcinoma with a low expression of GnRH-R). Cells were seeded at 1,400 cells/cm^2 and allowed to attach and grow for 3 days. In experiments with TPGnRH nanofibers alone (to obtain the IC50 value in each cell line), cells were treated with medium supplemented with the peptide solutions in PBS (0.7 to 700 μM) to achieve a final concentration of 0.07 to 70 μM per well. Media was replaced by fresh media every two days for 6 days. […] On day 4, PAX-loaded TPGnRH nanofibers containing 1 nM of PAX and 7 or 35 μM of TPGnRH were added and the effect on cell viability, proliferation, cell cycle, and apoptosis was assessed on day 6. Only for the MDA-MB-231 cells, on day 4, PAX-loaded TPGnRH nanofibers containing 10 nM of PAX and 7 or 35 μM of TPGnRH were added and the effect on cell viability, proliferation, cell cycle, and apoptosis was also assessed on day 6. […] Cell metabolic activity was measured using MTT assay. […] Afterwards, dimethyl sulfoxide (100 μL) was added to the wells to dissolve the formazan crystals and the absorbance was measured at 570 and 690 nm. […] Cells were incubated with BrdU for 24 hours before the end of the pre-determined time-points. […]

[4] = tested on: U-87 MG cells; experiment: Cell cycle (propidium iodide flow cytometry); assay type: cell-based, human
Method: as §1

[5] = in vivo; details: male, BALB/c, mouse, iv, 35 mg/kg
Method: as §2

[6] = Critical aggregation concentration, pyrene assay; assay type: physicochemical; details: PBS pH 7.4, 37° C., 24 hours
Method: Critical aggregation concentration (CAC) of TPGnRH was determined using pyrene ^1-4 and thioflavin T ^5, 6. The peptide solutions (3.5-700 μM) were prepared in phosphate-buffered saline (PBS, 0.01 M, pH 7.4) either by a dilution of a stock solution at 700 μM or solutions prepared at the required concentration. In the pyrene assay, pyrene was dissolved in methanol at 250 μM, dispersed into a black 96-well plate, and methanol was evaporated overnight. TPGnRH solutions were added to pyrene and incubated at 37° C. for 24 hours under stirring. Fluorescence spectra was recorded λex at 334 nm. For the thioflavin T assay, peptide solutions were added to freshly prepared thioflavin Tat 50 μM. All peptide samples were incubated during 5 minutes at room temperature and fluorescence was measured at λex at 450 nm and λem at 482 nm.

For `CCCCCCCCCCCCCCCC(=O)Oc1ccc(C[C@H](NC(=O)[C@H](CO)NC(=O)[C@H](Cc2c[nH]c3ccccc23)NC(=O)[C@H](Cc2c[nH]cn2)NC(=O)[C@@H](N)CCC(=O)O)C(=O)NCC(=O)N[C@@H](CC(C)C)C(=O)N[C@@H](CCCNC(=N)N)C(=O)N2CCC[C@H]2C(=O)NCC(N)=O)cc1` [TPGnRH, Tyrosine (O-Palmitoyl)-Glu-GnRH], the tolerability ([1]; intravenous 35 mg kg^−1, no immediate signs of toxicity, no gross alterations in liver, spleen, lungs, kidneys) was “well tolerated”, the dose in blood ([1]; intravenous, after 1 hour) was ~6 % of dose and the IC50 [2] was about 200 µM. For the same compound, the “effect on cell proliferation” value [3] was “significant reduction in cell proliferation”, the “effect on cell cycle” value ([4]; >7 μM, every two days, 6 days of treatment) was “cell cycle arrest at the G2/M phase” and the “percentage of cells at G2/M” value ([4]; day 6, TPGnRH alone at 35 μM or TPGnRH 4 days then one dose of PAX-loaded TPGnRH) was 21.81±3.98%. It also gave a tissue level at time at 5 min ([5]; brain) of 3080 ± 1010 ng/g, a tissue level at time at 1 h ([5]; brain) of 3470 ± 80 ng/g and a level at 5 min ([5]; plasma) of 545 ± 342 µg/mL. The level at 1 h ([5]; plasma) was 45600 ± 10100 ng/mL and the “CAC (self-assembly into aggregates)” value [6] was 7 µM.
